Data as given in ChEMBL document CHEMBL1201862, “PubChem BioAssay data set” (2004).
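Each compound was tested at five concentrations against cells in 96-well plates for 48 hours. GI50 = concentration required for 50% inhibition of growth.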 The source made the active and inactive calls. Rule as the data show it: active = GI50 up to about 1.1 µM and inactive = higher.

Tests used:
Experiment in all cases: growth of human tumour cells (NCI), 48 h
[1] = test system: HT-29
[2] = test system: HCC 2998
[3] = test system: NCI/ADR-RES
[4] = test system: RXF 393
[5] = test system: Hs-578T
[6] = test system: SK-MEL-2
[7] = test system: CCRF-CEM
[8] = test system: SF-295
[9] = test system: A498
[10] = test system: MDA-MB-231
[11] = test system: UACC-257
[12] = test system: PC-3
[13] = test system: SF-268
[14] = test system: HCT-116
[15] = test system: SF-539
[16] = test system: NCI-H23
[17] = test system: ACHN
[18] = test system: NCI-H226
[19] = test system: HCT-15
[20] = test system: LOX IMVI
[21] = test system: M14
[22] = test system: MOLT-4
[23] = test system: IGROV-1
[24] = test system: 786-0
[25] = test system: A549
[26] = test system: RPMI-8226
[27] = test system: SN12C
[28] = test system: SK-MEL-5
[29] = test system: OVCAR-5
[30] = test system: U-251
[31] = test system: SNB-75
[32] = test system: NCI-H522
[33] = test system: EKVX
[34] = test system: Malme-3M
[35] = test system: UO-31
[36] = test system: SR
[37] = test system: SNB-19
[38] = test system: SW-620
[39] = test system: OVCAR-3
[40] = test system: OVCAR-4
[41] = test system: KM12
[42] = test system: MDA-MB-435
[43] = test system: UACC-62
[44] = test system: SK-OV-3
[45] = test system: T47D
[46] = test system: SK-MEL-28
[47] = test system: HOP-92
[48] = test system: COLO 205
[49] = test system: BT-549
[50] = test system: HL-60
[51] = test system: MCF7
[52] = test system: DU-145
[53] = test system: CAKI-1
[54] = test system: NCI-H460
[55] = test system: K562
[56] = test system: MDA-N
[57] = test system: OVCAR-8
[58] = test system: HOP-62
[59] = test system: TK-10

Compound: O=C(/C=C/c1ccccc1)CCC1C(=O)c2ccccc2C1=O
- GI50 [1]: > 100 µM (inactive)
- GI50 [2]: > 100 µM (inactive)
- GI50 [3]: > 100 µM (inactive)
- GI50 [4]: > 100 µM (inactive)
- GI50 [5]: > 100 µM (inactive)
- GI50 [6]: > 100 µM (inactive)
- GI50 [7]: > 100 µM (inactive)
- GI50 [8]: > 100 µM (inactive)
- GI50 [9]: > 100 µM (inactive)
- GI50 [10]: > 100 µM (inactive)
- GI50 [11]: > 100 µM (inactive)
- GI50 [12]: > 100 µM (inactive)
- GI50 [13]: > 100 µM (inactive)
- GI50 [14]: > 100 µM (inactive)
- GI50 [15]: > 100 µM (inactive)
- GI50 [16]: > 100 µM (inactive)
- GI50 [17]: > 100 µM (inactive)
- GI50 [18]: > 100 µM (inactive)
- GI50 [19]: 42.6 µM
- GI50 [20]: > 100 µM (inactive)
- GI50 [21]: > 100 µM (inactive)
- GI50 [22]: > 100 µM (inactive)
- GI50 [23]: > 100 µM (inactive)
- GI50 [24]: > 100 µM (inactive)
- GI50 [25]: > 100 µM (inactive)
- GI50 [26]: 73.6 µM (inactive)
- GI50 [27]: > 100 µM (inactive)
- GI50 [28]: > 100 µM (inactive)
- GI50 [29]: > 100 µM (inactive)
- GI50 [30]: > 100 µM (inactive)
- GI50 [31]: 19.7 µM (inactive)
- GI50 [32]: > 100 µM (inactive)
- GI50 [33]: > 100 µM (inactive)
- GI50 [34]: > 100 µM (inactive)
- GI50 [35]: > 100 µM (inactive)
- GI50 [36]: 66.2 µM (inactive)
- GI50 [37]: > 100 µM (inactive)
- GI50 [38]: > 100 µM (inactive)
- GI50 [39]: > 100 µM (inactive)
- GI50 [40]: 31.3 µM (inactive)
- GI50 [41]: > 100 µM (inactive)
- GI50 [42]: > 100 µM (inactive)
- GI50 [43]: > 100 µM (inactive)
- GI50 [44]: > 100 µM (inactive)
- GI50 [45]: > 100 µM (inactive)
- GI50 [46]: > 100 µM (inactive)
- GI50 [47]: > 100 µM (inactive)
- GI50 [48]: 64.9 µM (inactive)
- GI50 [49]: > 100 µM (inactive)
- GI50 [50]: > 100 µM (inactive)
- GI50 [51]: > 100 µM (inactive)
- GI50 [52]: > 100 µM (inactive)
- GI50 [53]: > 100 µM (inactive)
- GI50 [54]: > 100 µM (inactive)
- GI50 [55]: > 100 µM (inactive)
- GI50 [56]: 43.8 µM (inactive)
- GI50 [57]: > 100 µM (inactive)

Compound: CCCCCC(/C=N/N)C(O)(C(F)(F)F)C(F)(F)F (centres undefined)
- GI50 [1]: 3.59 µM (inactive)
- GI50 [2]: 6.78 µM (inactive)
- GI50 [3]: > 10 µM (inactive)
- GI50 [4]: 7.28 µM (inactive)
- GI50 [5]: 3.27 µM (inactive)
- GI50 [6]: 3.37 µM (inactive)
- GI50 [7]: > 10 µM (inactive)
- GI50 [8]: 3.13 µM (inactive)
- GI50 [9]: 2.44 µM (inactive)
- GI50 [10]: 4.07 µM (inactive)
- GI50 [11]: 5 µM (inactive)
- GI50 [12]: 3.27 µM (inactive)
- GI50 [13]: 1.87 µM (inactive)
- GI50 [14]: 3.99 µM (inactive)
- GI50 [15]: 3.93 µM (inactive)
- GI50 [16]: 3.58 µM (inactive)
- GI50 [17]: 4.15 µM (inactive)
- GI50 [58]: 4.78 µM (inactive)
- GI50 [18]: 2.54 µM (inactive)
- GI50 [19]: 3.48 µM
- GI50 [20]: 3.32 µM (inactive)
- GI50 [21]: 4.47 µM (inactive)
- GI50 [22]: > 10 µM (inactive)
- GI50 [59]: 7.89 µM (inactive)
- GI50 [23]: 7.18 µM (inactive)
- GI50 [24]: 2.97 µM (inactive)
- GI50 [25]: 4.91 µM (inactive)
- GI50 [26]: > 10 µM (inactive)
- GI50 [27]: 3.23 µM (inactive)
- GI50 [28]: 1.77 µM (inactive)
- GI50 [29]: 4.19 µM (inactive)
- GI50 [30]: 3.61 µM (inactive)
- GI50 [31]: 3.29 µM (inactive)
- GI50 [32]: 5.51 µM (inactive)
- GI50 [33]: 2.58 µM (inactive)
- GI50 [34]: 1.36 µM (inactive)
- GI50 [36]: > 10 µM (inactive)
- GI50 [37]: 4.08 µM (inactive)
- GI50 [38]: 2.53 µM (inactive)
- GI50 [39]: 2.04 µM (inactive)
- GI50 [40]: 5.35 µM (inactive)
- GI50 [41]: 4.44 µM (inactive)
- GI50 [42]: 3.53 µM (inactive)
- GI50 [43]: 3.9 µM (inactive)
- GI50 [44]: 5.06 µM (inactive)
- GI50 [45]: 7.08 µM (inactive)
- GI50 [46]: 2.64 µM (inactive)
- GI50 [47]: 2.79 µM (inactive)
- GI50 [48]: 1.86 µM (inactive)
- GI50 [49]: 4.04 µM (inactive)
- GI50 [50]: > 10 µM (inactive)
- GI50 [51]: 3.22 µM (inactive)
- GI50 [52]: 1.9 µM (inactive)
- GI50 [53]: 2.47 µM (inactive)
- GI50 [54]: 3.34 µM (inactive)
- GI50 [56]: 3.55 µM (inactive)
- GI50 [57]: 3.48 µM (inactive)
